Experimental findings from patent US7070780B2, “Treatment of demyelinating autoimmune disease with ordered peptides” (Board of Trustees of the Leland Stanford Junior University, priority 1999, dated 2006) are described below.

“Also recorded” adds a separate entry of the source.

Experiment [1] relates to experimental autoimmune encephalomyelitis in Lewis rats. In words: EAE treatment in Lewis rats immunized with MBPp85–99. Type of experiment: in vivo. The settings on record: EAE induced with MBPp85–99, single intraperitoneal dose of 0.5 mg peptide in PBS at disease onset. The method, then:
FIG. 1 is a graph depicting the prevention of EAE in rats treated with ordered peptides. […] Animals were injected with an emulsion of 0.1 mg of MBPp85–99 in complete Freund's adjuvant for EAE induction. Ten days later, when the clinical manifestations of disease became apparent, a single intra-peritoneal dose of peptide {SEQ ID NO:4} EYYKEYYKEYYK (squares), {SEQ ID NO:5} KYYKYYKYYKYY (triangles), or PBS (circles)was administered. Results are expressed as mean disease score of groups of six animals.
Animals. Female Lewis rats (6–8 weeks old), were purchased from Harlan Sprague Dawley (Indianapolis, Ind.)
Peptides. For immunization and disease reversal, peptides were synthesized on a peptide synthesizer (model 9050: MilliGen, Burlington, Mass.) by standard 9-fluorenylmethoxycarbonyl chemistry. Peptides were purified by HPLC. Structure was confirmed by amino acid analysis and mass spectroscopy. Peptides used for the experiments were: {SEQ ID NO:11} ENPVVHFFKNIVTPR (MBPp85–99), {SEQ ID NO:4} EYYKEYYKEYYK, {SEQ ID NO:5} KYYKYYKYYKYY.
EAE Induction. […] Experimental animals were scored as follows: 0, no clinical disease; 1, tail weakness or paralysis; 2, hind limb weakness; 3, hind limb paralysis; 4, forelimb weakness or paralysis; 5, moribund or dead animal.
EAE Treatment. Rats previously immunized with MBPp85–99 for EAE induction were scored from day eight after peptide injection. […]

The subject of the next experiment is anti-MBP antibodies. In words: Inhibition of autoantibody binding to MBP (anti-MBP antibodies affinity-purified from CNS lesions). The conditions noted are these: anti-MBP antibodies from CNS lesions of 12 post-mortem cases. An excerpt:
Previously, we have compared the structural requirements for autoantibody recognition to those of T cell clones reactive to MBP p87–99. Anti-MBP antibodies were affinity-purified from CNS lesions of 12 post-mortem cases studied. The MBP p87–99 peptide was immunodominant in all cases and it inhibited autoantibody binding to MBP by more than 95%. Residues contributing to autoantibody binding were located in a 10-amino acid segment p86–95 ({SEQ ID NO:9} VVHFFKNIVT) that also contained the MHC-T cell receptor contact residues for T cells recognizing MBP in the context of DRB1*1501 and DQB1*0602. In the epitope center, the same residues, {SEQ ID NO:10} VHFFK, were important for T cell binding and MHC recognition. Recently, the crystal structure of HLA-DR2 with MBPp85–99 was solved, confirming the prediction that K91 is the major TCR contact residue, while F90 is a major anchor into the hydrophobic P4 pocket of the MHC molecule.

As to “EYYKEYYKEYYK [ordered peptide of the repeated motif EYYK (n=3)]”, in experiment [1], the “effect on EAE (mean disease score)” value was “prevents the development of EAE; also recorded: effective in preventing and treating experimental autoimmune encephalomyelitis”.

For “MBP p87–99: peptide of residues 87–99 of myelin basic protein, immunodominant epitope (SRPHLIRLFSRDA; UniProt P02686 87-99, looked up, fragment)”, the “inhibition of autoantibody binding to MBP” value in the experiment with anti-MBP antibodies is recorded as “more than 95%”.
